In publication PMC3234597, “Two Panels of Steroid Receptor Luciferase Reporter Cell Lines for Compound Profiling” (Combinatorial Chemistry & High Throughput Screening, 2011):
Like-named read-outs stand apart in the source and are kept apart here.

What was measured:
Type in all cases: cell-based
[1] = target: T1, human GR (full-length) (Homo sapiens, UniProt P04150); assay: U2OS-GR/3xGRE luciferase reporter cell line (full-length receptor)
T1 construct: expression vectors encoding full-length steroid receptors: pcDNA3-hAR and pcDNA3-hGR; host or cells: U2OS
T1 sequence (P04150 1-777): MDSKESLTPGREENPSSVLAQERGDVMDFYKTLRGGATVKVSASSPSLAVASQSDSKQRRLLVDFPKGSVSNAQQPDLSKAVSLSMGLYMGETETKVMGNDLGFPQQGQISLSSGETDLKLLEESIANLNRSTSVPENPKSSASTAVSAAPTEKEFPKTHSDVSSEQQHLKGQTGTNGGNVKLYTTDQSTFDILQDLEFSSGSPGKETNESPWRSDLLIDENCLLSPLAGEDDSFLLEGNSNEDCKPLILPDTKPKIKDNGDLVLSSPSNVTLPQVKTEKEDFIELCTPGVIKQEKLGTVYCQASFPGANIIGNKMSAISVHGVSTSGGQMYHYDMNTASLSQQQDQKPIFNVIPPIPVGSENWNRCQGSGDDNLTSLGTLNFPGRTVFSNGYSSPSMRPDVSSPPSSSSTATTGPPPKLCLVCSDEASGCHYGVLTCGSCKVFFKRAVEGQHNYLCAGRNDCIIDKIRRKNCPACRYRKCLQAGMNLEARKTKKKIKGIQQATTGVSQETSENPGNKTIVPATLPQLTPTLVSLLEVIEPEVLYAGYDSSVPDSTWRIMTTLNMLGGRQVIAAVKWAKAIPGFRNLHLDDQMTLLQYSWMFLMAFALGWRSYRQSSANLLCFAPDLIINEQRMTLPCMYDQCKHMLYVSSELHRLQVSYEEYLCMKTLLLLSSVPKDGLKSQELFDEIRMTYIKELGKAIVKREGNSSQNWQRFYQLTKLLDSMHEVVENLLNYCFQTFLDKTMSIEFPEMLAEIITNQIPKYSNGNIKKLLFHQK

[2] = target: T2, human ERα (full-length) (Homo sapiens, UniProt P03372, G400V); assay: U2OS-ERα/3xERE luciferase reporter cell line (full-length receptor)
T2 sequence (P03372 1-595 G400V): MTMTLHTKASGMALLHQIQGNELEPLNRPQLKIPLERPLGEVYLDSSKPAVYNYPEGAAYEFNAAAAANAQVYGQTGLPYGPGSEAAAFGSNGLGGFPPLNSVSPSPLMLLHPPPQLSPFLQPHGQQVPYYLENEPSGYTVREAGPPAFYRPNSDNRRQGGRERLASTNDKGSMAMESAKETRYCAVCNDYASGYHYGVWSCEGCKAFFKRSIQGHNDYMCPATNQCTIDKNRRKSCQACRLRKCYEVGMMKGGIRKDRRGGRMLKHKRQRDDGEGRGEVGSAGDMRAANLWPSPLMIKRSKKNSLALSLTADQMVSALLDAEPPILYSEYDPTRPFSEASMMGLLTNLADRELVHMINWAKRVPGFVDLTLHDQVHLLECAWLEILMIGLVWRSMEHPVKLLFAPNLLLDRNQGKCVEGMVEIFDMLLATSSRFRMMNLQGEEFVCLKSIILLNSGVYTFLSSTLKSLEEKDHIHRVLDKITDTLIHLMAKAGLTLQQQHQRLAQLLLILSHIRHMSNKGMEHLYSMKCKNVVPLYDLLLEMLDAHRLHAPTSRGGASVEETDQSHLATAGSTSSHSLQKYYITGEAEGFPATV

[3] = target: T3, ERα^G420C-LBD fused to Gal4-DBD (Homo sapiens, UniProt P03372, G420C); assay: U2OS-ERα^G420C-LBD/9xGal4UAS luciferase reporter cell line
T3 construct: expressed in transfected cells; host or cells: U2OS
T3 sequence (P03372 311-547 G420C limits assumed): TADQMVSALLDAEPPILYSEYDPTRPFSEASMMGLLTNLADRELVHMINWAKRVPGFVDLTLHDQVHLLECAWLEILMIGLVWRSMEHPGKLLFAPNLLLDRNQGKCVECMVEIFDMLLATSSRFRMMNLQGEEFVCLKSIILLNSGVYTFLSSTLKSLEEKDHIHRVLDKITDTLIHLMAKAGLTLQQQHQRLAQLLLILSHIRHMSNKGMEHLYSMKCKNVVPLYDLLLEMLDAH

[4] = target: T4, GR-LBD fused to Gal4-DBD (Homo sapiens, UniProt P04150); assay: U2OS-GR-LBD/9xGal4UAS luciferase reporter cell line
T4 construct: expressed in transfected cells; host or cells: U2OS
T4 sequence (P04150 524-758 limits assumed): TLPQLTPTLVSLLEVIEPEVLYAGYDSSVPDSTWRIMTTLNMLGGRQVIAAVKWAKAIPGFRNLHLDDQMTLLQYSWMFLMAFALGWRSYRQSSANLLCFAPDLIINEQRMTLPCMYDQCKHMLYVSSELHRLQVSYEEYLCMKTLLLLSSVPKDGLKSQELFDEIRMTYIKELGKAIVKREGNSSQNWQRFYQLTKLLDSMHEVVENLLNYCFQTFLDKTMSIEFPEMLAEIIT

[5] = target: T5, ERα^wt-LBD fused to Gal4-DBD (Homo sapiens, UniProt P03372); assay: U2OS-ERα^wt-LBD/9xGal4UAS luciferase reporter cell line
T5 construct: ERα-LBD (amino acids 303-595) based on GenBank NM_000125; expressed in transfected cells; host or cells: U2OS
T5 sequence (P03372 303-595): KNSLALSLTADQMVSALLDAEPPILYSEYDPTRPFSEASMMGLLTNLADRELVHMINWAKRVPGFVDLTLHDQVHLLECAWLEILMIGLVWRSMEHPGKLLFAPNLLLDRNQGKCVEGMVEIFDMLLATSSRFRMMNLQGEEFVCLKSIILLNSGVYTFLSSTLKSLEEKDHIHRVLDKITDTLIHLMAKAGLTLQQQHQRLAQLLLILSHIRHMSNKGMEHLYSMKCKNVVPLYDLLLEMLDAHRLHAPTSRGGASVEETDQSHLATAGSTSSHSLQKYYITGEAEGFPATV

[6] = target: T1, human GR (full-length); assay: U2OS-GR/MMTV luciferase reporter cell line (full-length receptor)
[7] = target: T6, human ERβ (full-length) (Homo sapiens, UniProt Q92731); assay: U2OS-ERβ/3xERE luciferase reporter cell line (full-length receptor); conditions: read-out: Log EC50 (converted)
T6 construct: expression vectors encoding full-length steroid receptors: pcDNA3-hERα and pcDNA3-ERβ; expressed in transfected cells; host or cells: U2OS
T6 sequence (Q92731 whole entry): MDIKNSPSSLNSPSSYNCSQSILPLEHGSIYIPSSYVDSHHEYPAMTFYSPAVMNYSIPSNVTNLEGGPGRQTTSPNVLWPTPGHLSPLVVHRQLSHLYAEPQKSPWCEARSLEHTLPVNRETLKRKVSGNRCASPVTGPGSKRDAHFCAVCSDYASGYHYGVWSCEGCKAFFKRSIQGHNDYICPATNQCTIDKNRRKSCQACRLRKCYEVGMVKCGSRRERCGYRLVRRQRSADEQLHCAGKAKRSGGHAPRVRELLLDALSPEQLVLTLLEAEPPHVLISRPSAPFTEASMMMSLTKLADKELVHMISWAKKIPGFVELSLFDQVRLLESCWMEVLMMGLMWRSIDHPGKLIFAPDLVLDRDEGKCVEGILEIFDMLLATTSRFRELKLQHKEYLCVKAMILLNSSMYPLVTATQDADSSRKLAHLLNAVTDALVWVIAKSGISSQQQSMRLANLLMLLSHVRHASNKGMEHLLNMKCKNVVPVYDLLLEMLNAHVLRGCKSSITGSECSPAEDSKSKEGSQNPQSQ

[8] = target: T7, ERβ-LBD fused to Gal4-DBD (Homo sapiens, UniProt Q92731); assay: U2OS-ERβ-LBD/9xGal4UAS luciferase reporter cell line; conditions: read-out: Log EC50 (converted)
T7 construct: region comprising ERβ-LBD and a piece of the hinge region; expressed in transfected cells; host or cells: U2OS
T7 sequence (Q92731 264-498 limits assumed): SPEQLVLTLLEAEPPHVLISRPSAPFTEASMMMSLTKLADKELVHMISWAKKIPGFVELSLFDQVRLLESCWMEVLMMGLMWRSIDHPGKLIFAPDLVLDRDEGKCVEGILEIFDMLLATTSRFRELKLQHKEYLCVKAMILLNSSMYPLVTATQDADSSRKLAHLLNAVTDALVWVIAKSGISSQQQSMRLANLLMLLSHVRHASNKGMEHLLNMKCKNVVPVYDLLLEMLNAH

[9] = target: T8, MR-LBD fused to Gal4-DBD (Homo sapiens, UniProt P08235); assay: U2OS-MR-LBD/9xGal4UAS luciferase reporter cell line; conditions: read-out: Log EC50 (converted)
T8 construct: MR-LBD was cloned by RT-PCR from total RNA isolated from HEK293 cells; expressed in transfected cells; host or cells: U2OS
T8 sequence (P08235 726-964 limits assumed): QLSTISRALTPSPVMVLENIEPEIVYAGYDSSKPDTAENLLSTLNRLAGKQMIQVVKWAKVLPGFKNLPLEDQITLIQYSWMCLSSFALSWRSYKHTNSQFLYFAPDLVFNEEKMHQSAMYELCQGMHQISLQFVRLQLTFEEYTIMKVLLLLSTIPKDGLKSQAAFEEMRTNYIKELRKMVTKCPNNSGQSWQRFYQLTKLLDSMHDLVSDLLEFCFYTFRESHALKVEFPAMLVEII

[10] = target: T9, human MR (full-length) (Homo sapiens, UniProt P08235); assay: U2OS-MR/MMTV luciferase reporter cell line (full-length receptor); conditions: read-out: Log EC50 (converted)
T9 construct: expression vectors encoding full-length steroid receptors: pcDNA3-hAR, pcDNA3-hGR and pcDNA3-hMR; expressed in transfected cells; host or cells: U2OS
T9 sequence (P08235 1-984): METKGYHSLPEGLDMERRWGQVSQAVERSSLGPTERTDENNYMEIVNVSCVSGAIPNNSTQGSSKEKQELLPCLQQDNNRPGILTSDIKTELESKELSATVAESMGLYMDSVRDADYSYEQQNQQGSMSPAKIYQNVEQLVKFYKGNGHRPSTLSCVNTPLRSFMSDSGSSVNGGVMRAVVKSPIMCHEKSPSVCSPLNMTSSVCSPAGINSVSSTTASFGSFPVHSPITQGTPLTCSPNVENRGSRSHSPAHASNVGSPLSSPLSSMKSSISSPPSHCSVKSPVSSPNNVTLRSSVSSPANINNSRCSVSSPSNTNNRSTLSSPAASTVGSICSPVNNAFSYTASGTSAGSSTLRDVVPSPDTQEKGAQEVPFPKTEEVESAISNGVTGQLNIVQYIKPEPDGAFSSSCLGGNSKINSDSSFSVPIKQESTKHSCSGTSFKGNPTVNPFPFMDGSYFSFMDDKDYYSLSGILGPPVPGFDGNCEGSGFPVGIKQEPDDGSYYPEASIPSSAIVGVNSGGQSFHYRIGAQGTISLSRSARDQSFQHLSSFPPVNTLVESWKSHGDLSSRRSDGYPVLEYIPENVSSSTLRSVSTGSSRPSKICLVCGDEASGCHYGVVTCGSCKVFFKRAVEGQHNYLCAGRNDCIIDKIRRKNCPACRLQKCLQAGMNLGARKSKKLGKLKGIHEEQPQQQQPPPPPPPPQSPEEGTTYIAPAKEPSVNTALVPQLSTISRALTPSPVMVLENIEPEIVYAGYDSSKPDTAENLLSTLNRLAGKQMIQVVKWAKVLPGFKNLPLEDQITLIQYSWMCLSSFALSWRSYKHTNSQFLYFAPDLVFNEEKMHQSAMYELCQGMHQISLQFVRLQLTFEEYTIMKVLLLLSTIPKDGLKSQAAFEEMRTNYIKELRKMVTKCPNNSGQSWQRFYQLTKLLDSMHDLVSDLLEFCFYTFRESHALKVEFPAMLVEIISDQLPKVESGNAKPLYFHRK

[11] = target: T10, PR-LBD fused to Gal4-DBD (Homo sapiens, UniProt P06401); assay: U2OS-PR-LBD/9xGal4UAS luciferase reporter cell line
T10 construct: PR-LBD region was PCR amplified using the following primer combination; host or cells: U2OS
T10 sequence (P06401 679-913 limits assumed): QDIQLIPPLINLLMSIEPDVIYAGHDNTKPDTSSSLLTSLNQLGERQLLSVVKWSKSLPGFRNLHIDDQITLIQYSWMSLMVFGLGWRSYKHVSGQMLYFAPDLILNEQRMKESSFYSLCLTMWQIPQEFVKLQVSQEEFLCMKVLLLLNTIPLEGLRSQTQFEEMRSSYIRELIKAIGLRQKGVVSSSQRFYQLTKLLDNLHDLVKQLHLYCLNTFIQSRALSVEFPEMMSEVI

CC(=O)S[C@@H]1CC2=CC(=O)CC[C@]2(C)[C@H]2CC[C@@]3(C)[C@@H](CC[C@@]34CCC(=O)O4)[C@H]12 [Spironolactone, spironolactone]
> 10 µM: EC50 [1] | EC50 ([2]; Log EC50, agonist mode, ERα/3xERE, 20 h, value is log10 of molar EC50, mean ± SEM) | EC50 [3] | EC50 [4] | EC50 [5] | EC50 [6]

CC(C)C(=O)Nc1ccc([N+](=O)[O-])c(C(F)(F)F)c1 [Flutamide, flutamide]
> 10 µM: EC50 [7] | EC50 [2] | EC50 [3] | EC50 [8] | EC50 [9] | EC50 [5] | EC50 [10] | IC50 ([11]; antagonist mode, PR-LBD/9xGal4UAS, log10 of molar IC50, mean ± SEM, read-out: Log IC50 (converted)) | EC50 ([11]; read-out: Log EC50 (converted))
